No end group written: not given here.
What was measured:
δPKC [1] = molecular target: T1, δPKC (Homo sapiens, UniProt Q05655); assay: Proteinase K sensitivity of recombinant δPKC; type: binding; conditions: non-TAT conjugated peptide; vs no peptide or control peptide ΨδRACK
T1 construct: purchased Invitrogen
Protocol: Human recombinant δPKC (Invitrogen, Calif., USA; 50 ng; 0.625 pmole) was incubated with ΨPDK (non-TAT conjugated, 1 nmole) prior to addition of proteinase K (0.05 μg/ml) in 20 mM Tris-HCl, pH 7.4 containing 1 μM DTT. The reaction was stopped as indicated by adding 5 mM PMSF.
Since ΨPDK is derived from a PDK-like sequence in δPKC (FIG. 1B), it was reasoned that this peptide should act as a competitive inhibitor, selective for δPKC phosphorylation of PDK. To test this hypothesis directly, an in vitro kinase assay in which the ability of δPKC to phosphorylate PDK is determined was used.

JNK = JNK phosphorylation in hearts subjected to I/R (Western blot); set-up: species or system rat
Protocol: (§1) An ex vivo model of acute ischemic heart damage was used, which involves a 30 min equilibration period, followed by 30 min of global ischemia, which in turn is followed by 60 min of reperfusion. The hearts were perfused with 1 μM TAT or TAT-conjugated peptide. Normoxic control hearts were subjected to 90 min perfusion in the absence of ischemia. Coronary effluent was collected to determine creatine phosphokinase (CPK) release during the first 30 min of the reperfusion period. At the end of the reperfusion period, hearts were sliced into 1-mm-thick transverse sections and incubated in triphenyltetrazolium chloride solution (TTC, 1% in phosphate buffer, pH 7.4) at 37° C. for 15 min. Infarct size was expressed as a percentage of the risk zone (equivalent to total LV muscle mass) (methods described in Brandman et al., 2007, J. Biol. Chem., 282:4113-4123; Inagaki et al., 2003, Circulation, 108:869-875).
Rat hearts were homogenized in a buffer containing 210 mM mannitol, 70 mM sucrose, 5 mM MOPS and 1 mM EDTA followed by isolation of the mitochondria fraction (described in Churchill et al., 2008, J. Mol. Cell. Cardiol., 46:278-284) and identified by the presence of VDAC (MitoSciences, Eugene, Oreg., USA). The level of phosphorylated and unphosphorylated JNK1/2 was analyzed in the total fraction using respective specific antibodies (Cell Signaling, Danvers, Mass. and Santa Cruz Biotechnology, CA, USA).
First, I/R-induced infarct size after treatment with ΨPDK or δV1-1 (Inagaki et al., 2003, Circulation, 108:869-875), was smaller than that in hearts treated with the control peptide or with ΨδRACK, the δPKC-specific activator or with δV1-5 (FIG. 6A). Second, similar data were obtained when determining the levels of released creatine phosphokinase (CPK), as a marker of myocardial infarction; CPK levels in the ΨPDK- or δV1-1-treated hearts were similar and were lower than those after treatment with control peptide, ΨδRACK or δV1-5 (FIG. 6B).
To begin determining the contribution of each of the amino acids on the effect of the peptide, Alanine scanning was used (Brunel et al., 2006, J. Virol., 80:1680-1687; Chen et al., J. Pep. Res., 2000, 56:147-156; Brems et al., 1992, Prot. Eng., 5:527-533) (substituting individual amino acid with an alanine). The resultant ΨPDK peptide analogs were then used in the same model of myocardial infarction, using CPK release and JNK phosphorylation as markers for cardiac injury. CPI release into the perfusates and pJNK in the hearts were determined after I/R in the presence of respective peptides and compared to the levels in hearts subjected to I/R in the presence of the control peptide. None of the peptides having a substitution had any significant biological activity (Table 1).

E1 subunit of PDH = assay: 2-D IEF phosphorylation of PDH E1 subunit in hearts after I/R; set-up: species or system rat; conditions: cardiac I/R
Protocol: as §1, with “108:869-875). […]” for “108:869-875).”
As described above, δPKC phosphorylation of PDK following cardiac ischemia and reperfusion leads to the phosphorylation and a decline in the activity of pyruvate dehydrogenase (PDH) (Churchill et al., 2005, Circ. Res., 97:78-85). […] Since ΨPDK is derived from the PDK homologous sequence in δPKC, it was next determined whether PDK phosphorylation is affected by ΨPDK treatment.

δPKC [2] = molecular target: T2, δPKC (Mus musculus, UniProt P28867); assay: MARCKS phosphorylation in wild-type fibroblasts (Western blot); type: cell-based; conditions: 20% serum, peptides conjugated to TAT47-57, relative to control peptide
T2 construct: endogenous in cells; host or cells: primary fibroblasts from wild-type mice
From the text: Fibroblasts were isolated from wild-type or δPKC knockout mice (provided by Dr. Robert Messing, Gallo Center, UCSF) as previously described (Disatnik et al., 2004, J. Cell Sci., 117:4469-4479) and maintained in 20% fetal bovine serum.
Phosphorylation of myristoylated alanine-rich C kinase substrate (MARCKS), a ubiquitous PKC substrate, was monitored by Western blot of total cell lysates, using anti-phosphorylated MARCKS (Cell Signaling, Danvers, Mass.). Anti-MARCKS and anti-δPKC antibodies were obtained from Santa Cruz Biotechnology (Santa Cruz Biotechnology, CA, USA).
The ΨPDK sequence is found both in PDK and in the PDK-cognate protein, δPKC. It was therefore predicted that ΨPDK mimics inhibitory intra-molecular interaction, and, similar to ΨδRACK, ΨPDK should compete with the inhibitory interaction of PDK and δPKC, and increase δPKC-mediated functions (FIG. 1A). Phosphorylation of myristoylated alanine-rich C-kinase substrate (MARCKS) was used as a marker of PKC activity (Disatnik et al., 2004, J. Cell. Sci., 117:4469-4479). […] To determine the selectivity of the peptides for δPKC, fibroblasts derived from δPKC knock-out mice were also used.

T2 sequence (P28867 whole entry): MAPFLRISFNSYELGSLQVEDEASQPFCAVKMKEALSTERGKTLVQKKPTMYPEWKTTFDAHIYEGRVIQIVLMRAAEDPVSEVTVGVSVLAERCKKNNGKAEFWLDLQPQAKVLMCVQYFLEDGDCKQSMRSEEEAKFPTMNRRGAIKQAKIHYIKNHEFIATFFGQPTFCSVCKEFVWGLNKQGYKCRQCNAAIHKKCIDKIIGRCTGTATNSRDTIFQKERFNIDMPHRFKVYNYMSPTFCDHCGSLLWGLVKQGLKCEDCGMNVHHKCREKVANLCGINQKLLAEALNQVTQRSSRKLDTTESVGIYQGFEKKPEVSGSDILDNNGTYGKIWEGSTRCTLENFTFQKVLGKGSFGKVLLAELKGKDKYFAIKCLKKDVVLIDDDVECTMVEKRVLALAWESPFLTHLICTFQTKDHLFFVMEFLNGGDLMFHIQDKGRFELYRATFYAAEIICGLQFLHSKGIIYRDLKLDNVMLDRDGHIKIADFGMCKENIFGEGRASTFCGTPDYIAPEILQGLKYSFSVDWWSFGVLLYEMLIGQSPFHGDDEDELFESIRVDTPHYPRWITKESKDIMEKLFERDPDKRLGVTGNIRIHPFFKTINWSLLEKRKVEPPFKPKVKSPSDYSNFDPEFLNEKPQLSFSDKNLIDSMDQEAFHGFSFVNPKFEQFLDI
T1 sequence (Q05655 whole entry): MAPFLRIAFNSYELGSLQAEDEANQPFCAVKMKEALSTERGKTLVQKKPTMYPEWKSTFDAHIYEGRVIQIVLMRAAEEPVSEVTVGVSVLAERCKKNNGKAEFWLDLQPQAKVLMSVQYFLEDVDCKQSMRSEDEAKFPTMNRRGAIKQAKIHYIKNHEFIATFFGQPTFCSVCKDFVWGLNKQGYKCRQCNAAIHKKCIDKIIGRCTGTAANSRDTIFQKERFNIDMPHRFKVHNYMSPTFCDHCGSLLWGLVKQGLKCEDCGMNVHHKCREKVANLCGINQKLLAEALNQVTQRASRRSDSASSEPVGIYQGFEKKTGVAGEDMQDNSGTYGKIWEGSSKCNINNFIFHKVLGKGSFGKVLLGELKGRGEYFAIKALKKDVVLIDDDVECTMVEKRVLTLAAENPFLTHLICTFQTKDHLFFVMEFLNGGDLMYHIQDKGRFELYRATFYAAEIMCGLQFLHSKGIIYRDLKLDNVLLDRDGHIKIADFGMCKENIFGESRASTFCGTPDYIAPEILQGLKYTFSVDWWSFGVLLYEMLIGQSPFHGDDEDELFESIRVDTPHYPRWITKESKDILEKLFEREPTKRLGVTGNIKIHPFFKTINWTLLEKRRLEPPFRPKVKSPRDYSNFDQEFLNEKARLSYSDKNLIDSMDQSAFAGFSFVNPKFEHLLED

ALSTER (not fully specified (C-terminus); also: TAT47-57 conjugated via disulfide) [ΨPDK, for cells and hearts conjugated to TAT47-57 via disulfide bond]
stability of δPKC to proteinase K digestion (δPKC [1]): more stable to PK digestion | p-JNK/total JNK (JNK; ex vivo I/R hearts, 1 μM peptide): 0.4 ± 0.10 | I/R-induced JNK phosphorylation (in words) (JNK; ex vivo I/R, vs δV1-5 and ΨδRACK): reduced I/R-induced JNK phosphorylation | phosphorylation of E1 subunit of PDH (E1 subunit of PDH): did not occur | MARCKS phosphorylation (δPKC [2]): increased MARCKS phosphorylation
